Patent publication US20200247846A1, “INHIBITION OF OXIDATIVE STRESS, GLYCATION, AND PROTEIN CROSSLINKING” (THE REGENTS OF THE UNIVERSITY OF COLORADO, A BODY CORPORATE, priority 2017, published 2020)

Experiments:
[1] = system: human lens cells (FHL 124); assay: FHL 124 cells: levels of GTG metabolites and α-dicarbonyls; assay type: cell-based
Protocol: FIG. 6A depicts the scheme of dehydroascorbate (DHA) degradation and formation of reactive α-dicarbonyls and AGEs. […] The bar graphs are means±SD of triplicate measurements. **p<0.005, ***p<0.0005.
Next, human lens cells (FHL 124) were incubated with dehydroascorbic acid in the presence or absence of GTG and analyzed for levels of GTG and its metabolites as well as α-dicarbonyls. […] FHL124 cells were pretreated with GTG before either DHA or MGO was added.

[2] = system: diabetic mice; assay: AGE levels in lenses and retinas of STZ-diabetic mice by UPLC-MS/MS; assay type: in vivo; conditions: 1 nmole/g body weight i.p. once every two days, 8 weeks; vs untreated diabetic controls
Protocol: The bar graphs are the means±SD of at least 8 measurements. *p<0.05, **p<0.005.
GTG was also tested in diabetic mice. Diabetes was induced by repeated STZ injections. GTG (1 nmole/g body weight) was injected intraperitoneally once every two days. After 8 weeks, lenses and retinas were harvested and analyzed for AGE levels by UPLC-MS/MS.

[3] = system: αB-Crystallin; assay: αB-Crystallin incubated with methylglyoxal with or without GTG: covalent crosslinking and AGE levels; assay type: biochemical; conditions: 250 μM GTG + 250 μM MGO
Protocol: Legend: 1. αB-crystallin control, 2. αB-crystallin+250 μM GTG, 3. αB-crystallin+250 μM MGO, 4. αB-crystallin+250 μM GTG+250 μM MGO. The bar graphs are means±SD of triplicate measurements. ***p<0.0005. […] Lanes: 1. MW marker, 2. αB-crystallin standard, 3. αB-crystallin blank, 4. αB-crystallin+250 μM GTG, 5. αB-crystallin+250 μM MGO, 5. αB-crystallin+250 μM GTG and 250 μM MGO.
To test the efficacy of GTG in the inhibition of AGE production, αB-Crystallin was incubated with methylglyoxal in the presence or absence of GTG and analyzed for covalent crosslinking and AGE levels.

[4] = system: Mouse lenses; assay: Mouse lens stiffness (axial and equatorial strain under load); conditions: 1.5 mM GTG, 48 h, 37° C.; load of 2,700 mg
Protocol: Mouse lenses (6 months old) were incubated with 1.5 mM GTG for 48 h at 37° C. in serum free MEM in a CO2 incubator. Lens stiffness was measured using a set up as described previously (Cheng C, et al., Journal of visualized experiments: JoVE. 2016, (111):10.3791/ 53986). Lens stiffness was measured using a load of 2,700 mg. Axial and equatorial strains were calculated as previously described (Chen, JOVE 2016, supra).

[5] = Stability of GTG in buffers, UPLC-MS MRM analysis; assay type: physicochemical; conditions: for stability: up to 48 h
Protocol: All chromatographic analyses were carried out in a Waters Acquity UPLC system connected to a Sciex 4500 QTrap (Redwood City, Calif.). Mass spectrometric analyses were carried out in the multiple reaction monitoring (MRM) mode. Chromatographic separations were carried out in an ACQUITY BEH C18 peptide column (100*2.1 mm, 1.7 μm; Waters) connected to a guard column using a flow rate of 0.5 ml/min. Water (solvent A) and acetonitrile (solvent B) were used as eluents. To both solvents, 0.1% heptafluorobutyric acid (v/v) was added. Analyses were performed at a column temperature of 40° C. using gradient elution: 5% B (0-0.25 min) to 20% B (2 min) to 50% B (3 min) to 100% B (3.5-5 min). The column was equilibrated at 5% B for 1 min prior to the next analysis. Detection of the analytes was achieved by using full scan mode for the identification of metabolites in preparative HPLC fraction and multiple reaction monitoring for the quantitation in stability experiments. The ion source was run under the following conditions: temperature, 550° C.; ion spray voltage, 4.5 kV; curtain gas, 45 ml/min; nebulizer gas, 60 ml/min; heating gas, 60 ml/min.
To test the stability, GTG was incubated under various conditions. The following buffers were used: 0.1 M phosphate buffer pH 5, 0.1 M phosphate buffer pH 7, 0.1 M phosphate buffer pH 9 and 0.1% formic acid. 10 μM solutions of […] in each buffer were stored at 4° C., 25° C. or 37° C. for up to 48 h, respectively. Sample aliquots were directly injected to ULPC-MS for MRM analysis. For the identification of degradation products sample aliquots were analyzed using full scan mode.

CCOC(=O)CNC(=O)C(CSSCCNC(=N)N)NC(=O)CCC(N)C(=O)OCC (stereo not shown) [GTG, glutathione diethyl ester thioethylguanidine disulfide]
penetration of the plasma membrane of FHL124 cells ([1]; 50 mM GTG for 2 h): able to penetrate the plasma membrane
intracellular conversion to glutathione and mercaptoethylguanidine ([1]; 50 mM GTG for 2 h, FHL124 cells): immediately reduced and hydrolyzed to glutathione and mercaptoethylguanidine
reactive α-dicarbonyls derived from dehydroascorbic acid ([1]; cells treated 24 h with dehydroascorbic acid, subsequent incubation with GTG): significant reduction
AGE levels in the lens [2]: lower
AGE levels in the retina [2]: lower
covalent crosslinking in αB-crystallin incubated with methylglyoxal ([3]; SDS-PAGE): significantly reduced
AGE formation (CEL levels) in αB-crystallin incubated with methylglyoxal ([3]; after acid hydrolysis): significantly reduced
improvement of axial strain in comparison to control lenses [4]: 23%
improvement of equatorial strain in comparison to control lenses [4]: 72%
stability ([5]; 0.1% formic acid, 10 μM, 4° C., 25° C. or 37° C.): stable at all temperatures
stability ([5]; 0.1 M phosphate buffer pH 5, 4° C.): stable
stability ([5]; 0.1 M phosphate buffer pH 5, 25° C.): stable
stability ([5]; 0.1 M phosphate buffer pH 5, 37° C.): slightly degraded
stability ([5]; 0.1 M phosphate buffer pH 7, 4° C., 25° C. or 37° C.): degraded at all temperatures
stability ([5]; 0.1 M phosphate buffer pH 9, 4° C., 25° C. or 37° C.): degraded at all temperatures
reduction of the disulfide bond during the incubation ([5]; all buffer and temperature conditions of the stability test): not observed
